From patent publication US20220259193A1, “KCNT1 INHIBITORS AND METHODS OF USE” (Praxis Precision Medicines, Inc., priority 2019, published 2022)
pIC50: −log10 of the molar value.

Target: T1, KCNT1 (KNa1.1, Slack) (Homo sapiens, UniProt Q5JUK3)
T1 construct: expressed in transfected cells; host or cells: HEK-TREX (tetracycline-inducible HEK cell line)
T1 sequence (Q5JUK3 1-1230): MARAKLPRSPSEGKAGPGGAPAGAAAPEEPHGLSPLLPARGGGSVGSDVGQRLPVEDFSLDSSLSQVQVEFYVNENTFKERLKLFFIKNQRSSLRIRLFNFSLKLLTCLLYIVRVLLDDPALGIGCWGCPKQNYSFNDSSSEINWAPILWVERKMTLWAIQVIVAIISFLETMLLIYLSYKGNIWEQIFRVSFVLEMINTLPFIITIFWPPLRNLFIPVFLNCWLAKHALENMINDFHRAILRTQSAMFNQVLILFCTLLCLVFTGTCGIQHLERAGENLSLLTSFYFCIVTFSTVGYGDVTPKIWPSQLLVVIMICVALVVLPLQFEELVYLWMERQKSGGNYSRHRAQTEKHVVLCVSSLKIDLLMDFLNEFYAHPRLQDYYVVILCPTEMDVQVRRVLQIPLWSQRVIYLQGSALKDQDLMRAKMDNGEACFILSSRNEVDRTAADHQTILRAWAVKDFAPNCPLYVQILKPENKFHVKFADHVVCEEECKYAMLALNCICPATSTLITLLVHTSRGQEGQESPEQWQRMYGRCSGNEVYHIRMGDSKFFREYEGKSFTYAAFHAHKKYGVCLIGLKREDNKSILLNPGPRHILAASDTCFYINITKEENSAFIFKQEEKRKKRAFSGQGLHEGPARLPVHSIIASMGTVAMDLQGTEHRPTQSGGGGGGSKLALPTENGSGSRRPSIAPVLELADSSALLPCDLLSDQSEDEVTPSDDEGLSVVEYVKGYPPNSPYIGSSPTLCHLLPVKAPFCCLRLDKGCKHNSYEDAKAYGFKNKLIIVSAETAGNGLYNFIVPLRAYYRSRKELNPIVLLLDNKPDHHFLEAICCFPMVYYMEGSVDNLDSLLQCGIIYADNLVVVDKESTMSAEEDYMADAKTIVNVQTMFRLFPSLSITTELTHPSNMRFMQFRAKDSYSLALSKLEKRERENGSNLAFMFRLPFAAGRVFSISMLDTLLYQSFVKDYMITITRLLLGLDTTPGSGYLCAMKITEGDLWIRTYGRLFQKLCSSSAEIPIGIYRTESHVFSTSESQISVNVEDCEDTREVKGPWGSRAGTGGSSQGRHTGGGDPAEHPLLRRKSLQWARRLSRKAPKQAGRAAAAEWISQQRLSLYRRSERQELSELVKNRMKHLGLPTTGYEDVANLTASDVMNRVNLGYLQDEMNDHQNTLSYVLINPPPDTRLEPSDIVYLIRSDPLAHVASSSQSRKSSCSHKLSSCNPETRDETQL
Experiment: KCNT1 patch clamp assay (SyncroPatch 384PE automated patch clamp)
Type: cell-based
Settings: tetracycline inducible HEK-TREX cell line; perforated patch; step from −80 mV to 0 mV; room temperature; read-out: KCNT1-WT IC50
Method in brief: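 Tetracycline-inducible HEK-TREX cells; perforated-patch (10 μM escin) population recordings at room temperature, holding −80 mV with 100 ms step to 0 mV.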

Compound | pIC50
Cc1nn(C(C)(C)C)cc1C(=O)N[C@@H](C)c1nc(-c2cccc(F)c2)no1 [Compound 150] | ≥ 6.00
Cc1nn(C(C)C)cc1C(=O)NC(C)c1nc(-c2cccc(Cl)c2)no1 (centres unmarked) [Compound 96] | ≥ 6.00
Cn1nc(C(F)(F)F)cc1C(=O)NC(CC(N)=O)c1nc(-c2cccc(F)c2)no1 (single isomer, unassigned) [Compound 128, N-[3-amino-1-[3-(3-fluorophenyl)-1,2,4-oxadiazol-5-yl]-3-oxo-propyl]-2-methyl-5-(trifluoromethyl)pyrazole-3-carboxamide] | ≤ 4.70
CC[C@H](NC(=O)c1cc(C(F)(F)F)nn1CC(F)F)c1nc(-c2cccc(F)c2)no1 [Compound 111] | ≥ 6.00
C[C@H](NC(=O)OC(C)(C)C)c1nc(-c2ccnc(OC3CC(F)(F)C3)c2)no1 [Compound 293, tert-butyl (S)-(1-(3-(2-(3,3-difluorocyclobutoxy)pyridin-4-yl)-1,2,4-oxadiazol-5-yl)ethyl)carbamate] | ≤ 4.70
Cn1nc(C(F)(F)F)cc1C(=O)NC(CC(N)=O)c1nc(-c2cccc(F)c2)no1 (single isomer, unassigned) [Compound 129, N-[3-amino-1-[3-(3-fluorophenyl)-1,2,4-oxadiazol-5-yl]-3-oxo-propyl]-2-methyl-5-(trifluoromethyl)pyrazole-3-carboxamide] | ≤ 4.70
Cn1nc(C2CC2)cc1C(=O)NC(C)(C)c1nc(-c2cccc(F)c2)no1 [Compound 50] | 4.70 to 6.00
CC[C@H](NC(=O)c1cc(C2CC2)nn1C)c1nc(-c2cccc(F)c2)no1 [Compound 60] | ≥ 6.00
CC(NC(=O)c1cc(C(F)(F)F)nn1C)c1nc(-c2cccc(S(C)(=O)=O)c2)no1 (centres unmarked) [Compound 179, 1-methyl-N-(1-(3-(3-(methylsulfonyl)phenyl)-1,2,4-oxadiazol-5-yl)ethyl)-3-(trifluoromethyl)-1H-pyrazole-5-carboxamide] | 4.70 to 6.00
C[C@H](NC(=O)c1cc(C(F)F)nn1C(F)F)c1nc(-c2cccc(F)c2)no1 [Compound 130] | ≥ 6.00
Cc1nn(C(C)C)cc1C(=O)NC(C)c1nc(-c2ccc(Cl)cc2)no1 (centres unmarked) [Compound 97] | ≥ 6.00
Cc1nn(C2CCOCC2)cc1C(=O)N[C@@H](C)c1nc(-c2cccc(F)c2)no1 [Compound 152] | 4.70 to 6.00
C[C@H](NC(=O)c1cc(C(F)(F)F)nn1C)c1nc(-c2ccc(F)c(F)c2)no1 (single isomer, unassigned) [Compound 77] | ≥ 6.00
C[C@H](NC(=O)c1cn(CC(F)(F)F)nc1C1CC1)c1nc(-c2cccc(F)c2)no1 [Compound 151] | 4.70 to 6.00

Continued, values first:

pIC50 | Compound
≥ 6.00 | CC[C@H](NC(=O)c1cc(C(F)(F)F)nn1C)c1nc(-c2ccnc(C3CC3)c2)no1 [Compound 248, (S)—N-(1-(3-(2-cyclopropylpyridin-4-yl)-1,2,4-oxadiazol-5-yl)propyl)-1-methyl-3-(trifluoromethyl)-1H-pyrazole-5-carboxamide]
≤ 4.70 | COCc1cc(-c2noc([C@H](C)NC(=O)OC(C)(C)C)n2)ccn1 [Compound 289, tert-butyl (S)-(1-(3-(2-(methoxymethyl)pyridin-4-yl)-1,2,4-oxadiazol-5-yl)ethyl)carbamate]
≥ 6.00 | C[C@H](NC(=O)c1cc(C(F)(F)F)nn1C)c1nc(-c2ccnc(OCC3CC3)c2)no1 [Compound 214, (S)—N-(1-(3-(2-(cyclopropylmethoxy)pyridin-4-yl)-1,2,4-oxadiazol-5-yl)ethyl)-1-methyl-3-(trifluoromethyl)-1H-pyrazole-5-carboxamide]
4.70 to 6.00 | C[C@H](NC(=O)OC(C)(C)C)c1nc(-c2ccnc(OCC(F)F)c2)no1 [Compound 294, tert-butyl (S)-(1-(3-(2-(2,2-difluoroethoxy)pyridin-4-yl)-1,2,4-oxadiazol-5-yl)ethyl)carbamate]
≥ 6.00 | C[C@H](NC(=O)c1cc(C(F)(F)F)nn1C)c1nc(-c2ccnc(N3CC(F)(F)C3)c2)no1 [Compound 222, (S)—N-(1-(3-(2-(3,3-difluoroazetidin-1-yl)pyridin-4-yl)-1,2,4-oxadiazol-5-yl)ethyl)-1-methyl-3-(trifluoromethyl)-1H-pyrazole-5-carboxamide]
≤ 4.70 | CC(NC(=O)c1cc(C(F)(F)F)nn1C)c1nc(-c2cccc(C(N)=O)c2)no1 (centres unmarked) [Compound 193, N-(1-(3-(3-carbamoylphenyl)-1,2,4-oxadiazol-5-yl)ethyl)-1-methyl-3-(trifluoromethyl)-1H-pyrazole-5-carboxamide]
4.70 to 6.00 | Cc1nn(C)c(C(=O)N[C@@H](C)c2nc(-c3ccnc(C(F)(F)F)c3)no2)c1C [Compound 244]
≥ 6.00 | C[C@H](NC(=O)c1ccnn1CC1CC1)c1nc(-c2ccnc(C3CC3)c2)no1 [Compound 310, 2-(cyclopropylmethyl)-N-[(1S)-1-[3-(2-cyclopropyl-4-pyridyl)-1,2,4-oxadiazol-5-yl]ethyl]pyrazole-3-carboxamide]
≥ 6.00 | CCOc1cc(-c2noc([C@H](C)NC(=O)c3cc(C(F)(F)F)nn3C)n2)ccn1 [Compound 205, (S)—N-(1-(3-(2-ethoxypyridin-4-yl)-1,2,4-oxadiazol-5-yl)ethyl)-1-methyl-3-(trifluoromethyl)-1H-pyrazole-5-carboxamide]
≥ 6.00 | CC[C@H](NC(=O)c1ccnn1C1CCCC1)c1nc(-c2ccnc(C)c2)no1 [Compound 216, (S)-1-cyclopentyl-N-(1-(3-(2-methylpyridin-4-yl)-1,2,4-oxadiazol-5-yl)propyl)-1H-pyrazole-5-carboxamide]
≥ 6.00 | C[C@H](NC(=O)c1cc(C(F)(F)F)nn1CC(=O)N(C)C)c1nc(-c2ccnc(C3CC3)c2)no1 [Compound 230, (S)—N-(1-(3-(2-cyclopropylpyridin-4-yl)-1,2,4-oxadiazol-5-yl)ethyl)-1-(2-(dimethylamino)-2-oxoethyl)-3-(trifluoromethyl)-1H-pyrazole-5-carboxamide]
≥ 6.00 | C[C@H](NC(=O)c1cc(-c2ccc(F)cc2)nn1C)c1nc(-c2ccnc(C3CC3)c2)no1 [Compound 228, (S)—N-(1-(3-(2-cyclopropylpyridin-4-yl)-1,2,4-oxadiazol-5-yl)ethyl)-3-(4-fluorophenyl)-1-methyl-1H-pyrazole-5-carboxamide]
4.70 to 6.00 | C[C@H](NC(=O)c1cc(C(F)(F)F)nn1C)c1nc(-c2ccnc(COC3CC3)c2)no1 [Compound 254, (S)—N-(1-(3-(2-(cyclopropoxymethyl)pyridin-4-yl)-1,2,4-oxadiazol-5-yl)ethyl)-1-methyl-3-(trifluoromethyl)-1H-pyrazole-5-carboxamide]
≥ 6.00 | Cc1cc(C(=O)N[C@@H](C)c2nc(-c3ccnc(C4CC4)c3)no2)n(C)n1 [Compound 227, (S)—N-(1-(3-(2-cyclopropylpyridin-4-yl)-1,2,4-oxadiazol-5-yl)ethyl)-1,3-dimethyl-1H-pyrazole-5-carboxamide]
4.70 to 6.00 | CC(=O)Oc1cccc(-c2noc(C(C)NC(=O)c3cc(C(F)(F)F)nn3C)n2)c1 (racemic) [Compound 185, 3-(5-(1-(1-methyl-3-(trifluoromethyl)-1H-pyrazole-5-carboxamido)ethyl)-1,2,4-oxadiazol-3-yl)phenyl acetate]
≥ 6.00 | C[C@H](NC(=O)c1cc(C(F)(F)F)nn1C)c1nc(-c2ccnc(C3(C)CC3)c2)no1 [Compound 240, (S)-1-methyl-N-(1-(3-(2-(1-methylcyclopropyl)pyridin-4-yl)-1,2,4-oxadiazol-5-yl)ethyl)-3-(trifluoromethyl)-1H-pyrazole-5-carboxamide]
≤ 4.70 | C[C@H](NC(=O)c1cc(C(F)(F)F)nn1C)c1nc(-c2nccc(C(F)(F)F)n2)no1 [Compound 237, (S)-1-methyl-3-(trifluoromethyl)-N-(1-(3-(4-(trifluoromethyl)pyrimidin-2-yl)-1,2,4-oxadiazol-5-yl)ethyl)-1H-pyrazole-5-carboxamide]
≥ 6.00 | C[C@H](NC(=O)OC(C)(C)C)c1nc(-c2ccnc(C(F)(F)F)c2)no1 [Compound 295, tert-butyl (S)-(1-(3-(2-(trifluoromethyl)pyridin-4-yl)-1,2,4-oxadiazol-5-yl)ethyl)carbamate]
